Measurements reported in patent publication US6613718B2, “Aryl ether derivatives and processes for their preparation and herbicidal and desiccant compositions containing them” (Ishihara Sangyo Kaisha, Ltd., priority 2001, dated 2003).

Key:
Type in all cases: in vivo
Conditions in all cases: 14 days after application
[1] = test system: johnsongrass (Sorghum halepense, SORHA); experiment: Pre-emerge greenhouse herbicide activity screening, phytotoxicity rating
How it was run: (§1)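 Ratings taken 14 days after treatment on a 0–100 scale, 100 meaning complete plant death. Post-emerge: 2-3 leaf plants, 0.25% v/v surfactant added; pre-emerge: seeds sown a day ahead, soil surface-watered after spraying. Rates 15–1000 g ai/ha in acetone, 187 l/ha.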

[2] = test system: ivyleaf morningglory (Ipomoea hederacea, IPOHE); experiment: as above
How it was run: as §1

[3] = test system: large crabgrass (Digitaria sanguinalis, DIGSA); experiment: as above
How it was run: as §1

[4] = test system: lambsquarters (Chenopodium album, CHEAL); experiment: as above
How it was run: as §1

[5] = test system: sicklepod (Cassia obtusifolia, CASOB); experiment: as above
How it was run: as §1

[6] = test system: barnyardgrass (Echinochloa crus-galli, ECHCG); experiment: as above
How it was run: as §1

[7] = test system: velvetleaf (Abutilon theophrasti, ABUTH); experiment: as above
How it was run: as §1

[8] = test system: redroot pigweed (Amaranthus retroflexus, AMARE); experiment: as above
How it was run: as §1

[9] = test system: common ragweed (Ambrosia artemisiifolia L., AMBEL); experiment: as above
How it was run: as §1

[10] = test system: green foxtail (Setaria viridis, SETVI); experiment: as above
How it was run: as §1

[11] = test system: field corn (Zea mays L., var. Dekalb 535, CORN); experiment: Post-emerge greenhouse screening, crop safety / corn selectivity (phytotoxicity rating)
How it was run: as §1

[12] = test system: field corn (Zea mays L., var. Dekalb 535, CORN); experiment: Pre-emerge greenhouse screening, crop safety (phytotoxicity rating)
How it was run: as §1

[13] = test system: upland rice (Oryza sp., var.Tebonnet, RICE); experiment: as above
How it was run: as §1

[14] = test system: soybean (Glycine max L., var. Pella 86, SOY); experiment: as above
How it was run: as §1

[15] = test system: johnsongrass (Sorghum halepense, SORHA); experiment: Post-emerge greenhouse herbicide activity screening, phytotoxicity rating
How it was run: as §1

[16] = test system: ivyleaf morningglory (Ipomoea hederacea, IPOHE); experiment: as above
How it was run: as §1

[17] = test system: large crabgrass (Digitaria sanguinalis, DIGSA); experiment: as above
How it was run: as §1

[18] = test system: lambsquarters (Chenopodium album, CHEAL); experiment: as above
How it was run: as §1

[19] = test system: sicklepod (Cassia obtusifolia, CASOB); experiment: as above
How it was run: as §1

[20] = test system: barnyardgrass (Echinochloa crus-galli, ECHCG); experiment: as above
How it was run: as §1

[21] = test system: velvetleaf (Abutilon theophrasti, ABUTH); experiment: as above
How it was run: as §1

[22] = test system: redroot pigweed (Amaranthus retroflexus, AMARE); experiment: as above
How it was run: as §1

[23] = test system: common ragweed (Ambrosia artemisiifolia L., AMBEL); experiment: as above
How it was run: as §1

[24] = test system: green foxtail (Setaria viridis, SETVI); experiment: as above
How it was run: as §1

[25] = test system: upland rice (Oryza sp., var.Tebonnet, RICE); experiment: Post-emerge greenhouse screening, crop safety (phytotoxicity rating)
How it was run: as §1

[26] = test system: soybean (Glycine max L., var. Pella 86, SOY); experiment: as above
How it was run: as §1

Cn1c(C(F)(F)F)cc(=O)n(-c2cc(Oc3ncccc3C(F)(F)F)c(Cl)cc2F)c1=S [Compound 1-15]
SORHA phytotoxicity rating (0-100 scale) ([1]; 125 g ai/ha): 60
SORHA phytotoxicity rating (0-100 scale) ([1]; 250 g ai/ha): 98
IPOHE phytotoxicity rating (0-100 scale) ([2]; 125 g ai/ha): 95
IPOHE phytotoxicity rating (0-100 scale) ([2]; 250 g ai/ha): 100
DIGSA phytotoxicity rating (0-100 scale) ([3]; 125 g ai/ha): 99
DIGSA phytotoxicity rating (0-100 scale) ([3]; 250 g ai/ha): 100
CHEAL phytotoxicity rating (0-100 scale) ([4]; 125 g ai/ha): 100
CHEAL phytotoxicity rating (0-100 scale) ([4]; 250 g ai/ha): 100
CASOB phytotoxicity rating (0-100 scale) ([5]; 125 g ai/ha): 55
CASOB phytotoxicity rating (0-100 scale) ([5]; 250 g ai/ha): 85
ECHCG phytotoxicity rating (0-100 scale) ([6]; 125 g ai/ha): 50
ECHCG phytotoxicity rating (0-100 scale) ([6]; 250 g ai/ha): 65
ABUTH phytotoxicity rating (0-100 scale) ([7]; 125 g ai/ha): 100
ABUTH phytotoxicity rating (0-100 scale) ([7]; 250 g ai/ha): 100
AMARE phytotoxicity rating (0-100 scale) ([8]; 125 g ai/ha): 100
AMARE phytotoxicity rating (0-100 scale) ([8]; 250 g ai/ha): 100
AMBEL phytotoxicity rating (0-100 scale) ([9]; 125 g ai/ha): 75
AMBEL phytotoxicity rating (0-100 scale) ([9]; 250 g ai/ha): 90
SETVI phytotoxicity rating (0-100 scale) ([10]; 125 g ai/ha): 100
SETVI phytotoxicity rating (0-100 scale) ([10]; 250 g ai/ha): 100
CORN crop damage, phytotoxicity rating (0-100 scale) ([11]; 125 g ai/ha): 5
CORN crop damage, phytotoxicity rating (0-100 scale) ([11]; 250 g ai/ha): 5
CORN crop damage, phytotoxicity rating (0-100 scale) ([12]; 125 g ai/ha): 8
CORN crop damage, phytotoxicity rating (0-100 scale) ([12]; 250 g ai/ha): 8
RICE crop damage, phytotoxicity rating (0-100 scale) ([13]; 125 g ai/ha): 0
RICE crop damage, phytotoxicity rating (0-100 scale) ([13]; 250 g ai/ha): 0
SOY crop damage, phytotoxicity rating (0-100 scale) ([14]; 125 g ai/ha): 0
SOY crop damage, phytotoxicity rating (0-100 scale) ([14]; 250 g ai/ha): 35
SORHA phytotoxicity rating (0-100 scale) ([15]; 125 g ai/ha): 0
SORHA phytotoxicity rating (0-100 scale) ([15]; 250 g ai/ha): 0
IPOHE phytotoxicity rating (0-100 scale) ([16]; 125 g ai/ha): 75
IPOHE phytotoxicity rating (0-100 scale) ([16]; 250 g ai/ha): 100
DIGSA phytotoxicity rating (0-100 scale) ([17]; 125 g ai/ha): 0
DIGSA phytotoxicity rating (0-100 scale) ([17]; 250 g ai/ha): 0
CHEAL phytotoxicity rating (0-100 scale) ([18]; 125 g ai/ha): 100
CHEAL phytotoxicity rating (0-100 scale) ([18]; 250 g ai/ha): 100
CASOB phytotoxicity rating (0-100 scale) ([19]; 125 g ai/ha): 60
CASOB phytotoxicity rating (0-100 scale) ([19]; 250 g ai/ha): 65
ECHCG phytotoxicity rating (0-100 scale) ([20]; 125 g ai/ha): 0
ECHCG phytotoxicity rating (0-100 scale) ([20]; 250 g ai/ha): 0
ABUTH phytotoxicity rating (0-100 scale) ([21]; 125 g ai/ha): 95
ABUTH phytotoxicity rating (0-100 scale) ([21]; 250 g ai/ha): 95
AMARE phytotoxicity rating (0-100 scale) ([22]; 125 g ai/ha): 90
AMARE phytotoxicity rating (0-100 scale) ([22]; 250 g ai/ha): 90
AMBEL phytotoxicity rating (0-100 scale) ([23]; 125 g ai/ha): 55
AMBEL phytotoxicity rating (0-100 scale) ([23]; 250 g ai/ha): 55
SETVI phytotoxicity rating (0-100 scale) ([24]; 125 g ai/ha): 0
SETVI phytotoxicity rating (0-100 scale) ([24]; 250 g ai/ha): 0
RICE crop damage, phytotoxicity rating (0-100 scale) ([25]; 125 g ai/ha): 0
RICE crop damage, phytotoxicity rating (0-100 scale) ([25]; 250 g ai/ha): 0
SOY crop damage, phytotoxicity rating (0-100 scale) ([26]; 125 g ai/ha): 10
SOY crop damage, phytotoxicity rating (0-100 scale) ([26]; 250 g ai/ha): 10

Fc1cc(Cl)c(Oc2ncccn2)cc1-c1nn2c(c1Cl)CCCC2 [Compound 6-1, 3-Chloro-2-[4-chloro-2-fluoro-5-(2-pyrimidinyloxy)phenyl]-4,5,6,7-tetrahydro-pyrazolo[1,5-a]pyridine]
SORHA phytotoxicity rating (0-100 scale) ([1]; 125 g ai/ha): 100
SORHA phytotoxicity rating (0-100 scale) ([1]; 250 g ai/ha): 100
IPOHE phytotoxicity rating (0-100 scale) ([2]; 125 g ai/ha): 99
IPOHE phytotoxicity rating (0-100 scale) ([2]; 250 g ai/ha): 100
DIGSA phytotoxicity rating (0-100 scale) ([3]; 125 g ai/ha): 100
DIGSA phytotoxicity rating (0-100 scale) ([3]; 250 g ai/ha): 100
CHEAL phytotoxicity rating (0-100 scale) ([4]; 125 g ai/ha): 100
CHEAL phytotoxicity rating (0-100 scale) ([4]; 250 g ai/ha): 100
CASOB phytotoxicity rating (0-100 scale) ([5]; 125 g ai/ha): 100
CASOB phytotoxicity rating (0-100 scale) ([5]; 250 g ai/ha): 100
ECHCG phytotoxicity rating (0-100 scale) ([6]; 125 g ai/ha): 99
ECHCG phytotoxicity rating (0-100 scale) ([6]; 250 g ai/ha): 100
ABUTH phytotoxicity rating (0-100 scale) ([7]; 125 g ai/ha): 100
ABUTH phytotoxicity rating (0-100 scale) ([7]; 250 g ai/ha): 100
AMARE phytotoxicity rating (0-100 scale) ([8]; 125 g ai/ha): 100
AMARE phytotoxicity rating (0-100 scale) ([8]; 250 g ai/ha): 100
AMBEL phytotoxicity rating (0-100 scale) ([9]; 125 g ai/ha): 100
AMBEL phytotoxicity rating (0-100 scale) ([9]; 250 g ai/ha): 100
SETVI phytotoxicity rating (0-100 scale) ([10]; 125 g ai/ha): 100
SETVI phytotoxicity rating (0-100 scale) ([10]; 250 g ai/ha): 100
CORN crop damage, phytotoxicity rating (0-100 scale) ([11]; 125 g ai/ha): 10
CORN crop damage, phytotoxicity rating (0-100 scale) ([11]; 250 g ai/ha): 20
CORN crop damage, phytotoxicity rating (0-100 scale) ([12]; 125 g ai/ha): 40
CORN crop damage, phytotoxicity rating (0-100 scale) ([12]; 250 g ai/ha): 50
RICE crop damage, phytotoxicity rating (0-100 scale) ([13]; 125 g ai/ha): 85
RICE crop damage, phytotoxicity rating (0-100 scale) ([13]; 250 g ai/ha): 95
SOY crop damage, phytotoxicity rating (0-100 scale) ([14]; 125 g ai/ha): 25
SOY crop damage, phytotoxicity rating (0-100 scale) ([14]; 250 g ai/ha): 60
SORHA phytotoxicity rating (0-100 scale) ([15]; 125 g ai/ha): 75
SORHA phytotoxicity rating (0-100 scale) ([15]; 250 g ai/ha): 95
IPOHE phytotoxicity rating (0-100 scale) ([16]; 125 g ai/ha): 100
IPOHE phytotoxicity rating (0-100 scale) ([16]; 250 g ai/ha): 100
DIGSA phytotoxicity rating (0-100 scale) ([17]; 125 g ai/ha): 90
DIGSA phytotoxicity rating (0-100 scale) ([17]; 250 g ai/ha): 98
CHEAL phytotoxicity rating (0-100 scale) ([18]; 125 g ai/ha): 100
CHEAL phytotoxicity rating (0-100 scale) ([18]; 250 g ai/ha): 100
CASOB phytotoxicity rating (0-100 scale) ([19]; 125 g ai/ha): 100
CASOB phytotoxicity rating (0-100 scale) ([19]; 250 g ai/ha): 100
ECHCG phytotoxicity rating (0-100 scale) ([20]; 125 g ai/ha): 90
ECHCG phytotoxicity rating (0-100 scale) ([20]; 250 g ai/ha): 100
ABUTH phytotoxicity rating (0-100 scale) ([21]; 125 g ai/ha): 100
ABUTH phytotoxicity rating (0-100 scale) ([21]; 250 g ai/ha): 100
AMARE phytotoxicity rating (0-100 scale) ([22]; 125 g ai/ha): 100
AMARE phytotoxicity rating (0-100 scale) ([22]; 250 g ai/ha): 100
AMBEL phytotoxicity rating (0-100 scale) ([23]; 125 g ai/ha): 85
AMBEL phytotoxicity rating (0-100 scale) ([23]; 250 g ai/ha): 90
SETVI phytotoxicity rating (0-100 scale) ([24]; 125 g ai/ha): 100
SETVI phytotoxicity rating (0-100 scale) ([24]; 250 g ai/ha): 100
RICE crop damage, phytotoxicity rating (0-100 scale) ([25]; 125 g ai/ha): 90
RICE crop damage, phytotoxicity rating (0-100 scale) ([25]; 250 g ai/ha): 95
SOY crop damage, phytotoxicity rating (0-100 scale) ([26]; 125 g ai/ha): 95
SOY crop damage, phytotoxicity rating (0-100 scale) ([26]; 250 g ai/ha): 100
